Measured values reported in patent publication EP2401611B1, “IMPROVED METHODS FOR IDENTIFICATION” (Cambridge Enterprise Limited, priority 2009, dated 2010).

What was measured:
[1] = target: sstr2 (Homo sapiens, UniProt P30874); assay: [3H]-BN83250 equilibrium binding to THP-1 cells
Protocol: We have investigated the molecular interaction between BSCIs and the sstr2 receptor using conventional equilibrium binding studies employing labelled BSCI ligands.
For the analysis of binding, individual reactions were set up (in triplicate for each condition), with 1x10^6 THP-1 cells in Gey's Balanced Salt Solution, 10nM [^3H]-BN83250 (at 50 Ci/mmol) and various concentrations of (S)-3(2'2'-dimethylpropionoylamino)-tetrahydropyridin-2-one (10pM to 10µM). Excess (100µM) unlabelled BN83250 was used to determine the level of non-specific binding. After 2 hours at 4°C (conditions previously shown to achieve equilibrium binding, and which prevent uptake of the radioligand that would result in an over-estimate of binding) excess label was washed away by centrifugation (3 washes with 5ml of Gey's Balanced Salt Solution) and the bound radioactivity was determined by scintillation counting of the solubilised cell pellet.

[2] = system: Jurkat T cells; assay: SDF-1α induced migration of parental Jurkat T cells; format: cell-based, human
Protocol: Jurkat T cells and Jurkat-D3B cells were induced to migrate in response to 100ng/ml SDF-1α (R&D systems; the concentration of SDF-1α which induced maximal cell migration in both lines). The BSCI BN83250 was then added at various concentrations between 0nM and 1000nM (each in triplicate) to both the upper and lower compartments (at the same concentration in each compartment, so as not to create a gradient of BSCI concentration). DMSO (1% final concentration) was used as the vehicle, and was present in all wells at equal concentration.

[3] = system: fetal rat pituicytes; assay: Rat pituicyte GH suppression assay; format: cell-based; conditions: Rattus norvegicus; for Emax: Table 3, percentage suppression compared to vehicle, read-out: Rat pituicyte GH suppression assay Max effect (%); for EC50: Table 3, read-out: Rat pituicyte GH suppression assay ED50
Text: Two different assays for "classical" sstr2 functions were adopted: (1) cultured foetal rat pituitary cells secreted growth hormone which is inhibited by sstr2 agonists in a dose-dependent fashion and (2) selected glucose-sensitive sub-clones of the human Panc-1 cell line secrete insulin which is inhibited by sstr2 agonists in a dose-dependent fashion.
Methods: Cultures of fetal rat pituicytes were established exactly as previously described (Murray et al. (2004) J. Clin. Endocrinol. Metab. 89:3027-32) by enzymatic dispersion. After 48hrs in low glucose DMEM plus 10% FCS, cells in 48 well plates (5 x 10^4 cells per well) were washed for 4hrs in serum-free DMEM and then incubated with test agents at various concentrations for a further 24hrs in serum-free DMEM. At the end of this period, the conditioned medium was harvested, any cell debris removed by centrifugation and assayed for GH using a commercially available ELISA (Linco; cat# EZRMGH-45K) in accordance with the manufacturer's instructions.
Results were reported as the mean ± SD, expressed as the fold change from cells in the presence of vehicle only.

[4] = system: Jurkat-D3B cells; assay: SDF-1α induced migration of Jurkat-D3B cells expressing sstr2; format: cell-based, human
Protocol: Methods: Total mRNA was prepared from Panc-1 cells (a human pancreas cell line which is well known to express high levels of sstr2) using the RNAqueous 4PCR kit (Ambion, Cat code #1914) in accordance with the manufacturer's instructions. The mRNA was then reverse transcribed (using the RETROscript kit; Ambio) to yield a cDNA preparation. A full length cDNA of the sstr2 gene was then obtained by PCR (using a Peltier PTC-200 thermal cycler using the following cycle times and conditions: 94°C for 2 min, followed by 30 cycles of 94°C, for 30 sec, 55°C for 30sec, 72°C for 1 min and finally 72°C for 10 min), and isolated by preparative gel electrophoresis. The sequence of the sstr2 cDNA was confirmed by sequencing. The sstr2 cDNA was treated with EcoRI and Xhol to generate sticky ends, which allowed directional cloning into the polylinker of the plasmid pcDNA3.1+ (Invitrogen) followed by ligation (10µl ligation reactions were run with 400 T4 DNA ligase (New England Biolabs) and the maximal amounts of DNA with an insert:plasmid ratio of 3:1 in ligase buffer incubated overnight at 13°C). The resulting vector (see Fig. 13) was used to transform XL-10 Ultracompetent cells (Stratagene) using standard techniques. Plasmid DNA was prepared using a MiniPrep kit (Wizard Plus SV Minipreps DNA purification System; Promega) in accordance with the manufacturer's instructions for transfection into Jurkat T cells.
Jurkat T cells were grown in RPMI + 10% foetal calf serum (FCS), and subcultured by 1:3 dilution in fresh medium every 4 days. Jurkat T cells in logarithmic growth phase 48 hours after subculture were washed by centrifugation and resuspended in serum-free RPMI medium at 7.5 x 10^5 cells per ml. A mixture of DNA and transfection reagent (2µg of DNA; 3µl Fugene 6 transfection reagent; Roche) was then added and the cells were incubated at 37°C for 48 hours. The cells were then washed three times by centrifugation in RPMI + 10% FCS, before being suspended in fresh medium at 1 x 10^5 cells per ml. 68 ml of the resulting cell suspension was then plated out in a total of 226 wells in 96-well plates (Corning). After 48hrs, G418 (0.9mg/ml Active G418) was added to the medium to select for transfectants, and the cells were expanded by repeated subculture, keeping the populations from individual wells (which were considered clonal or oligoclonal expansions) separate. […]
A number of individual cell lines were obtained in this way, which expressed significant levels of sstr2 on the cell surface, detected by flow cytometry using the human-sstr2 antibody (Sigma, S0694; see Example 3 for details of the flow cytometry protocol used). […]

[5] = system: TNF-alpha; assay: Sub-lethal endotoxemia model (LPS challenge, serum TNF-alpha); format: in vivo, mouse; conditions: BN83250 subcutaneous, valerolactam oral gavage
Protocol: We selected the sub-lethal endotoxemia model in mouse, because this has been well characterised in our laboratory (see for example Fox et al. (2002) J. Med. Chem. 45:360-70; Fox et al. (2005) J. Med. Chem. 48:867-74). The extent of systemic inflammation in response to a single intraperitoneal injection of bacterial lipopolysaccharide (LPS) can be estimated by measuring serum TNF-alpha 2 hours post challenge.
Methods: Mice (CD1 strain; adult males; 6 per group) were treated with BSCI (in an appropriate vehicle) or with vehicle alone by an appropriate route. […] Simultaneously, one set of mice at each BSCI concentration received BIM 23627 at 4mg/animal (120mg/kg) by sub-cutaneous injection (a treatment condition known to suppress classical sstr2-mediated signalling, such as GH release, in rats; Tulipano et al. (2002) 143:1218-24). Between 30mins and 1hour after dosing (a period when a maximal plasma concentration of BSCI has been achieved), the inflammatory challenge was elicited by intraperitoneal injection of 750µg of LPS (Sigma; L4130 lot#024K4077; 900,000 EU/mg).
After a further 2 hours, the animals were sacrificed by CO2 asphyxiation, and blood was drawn by cardiac puncture. Serum was prepared by conventional methods, and the level of TNF-alpha in serum was measured using an ELISA (R&D Systems; Murine Quantikine code# MTA00) performed in accordance with the manufacturer's instructions.

Chain of sstr2 (P30874 whole entry): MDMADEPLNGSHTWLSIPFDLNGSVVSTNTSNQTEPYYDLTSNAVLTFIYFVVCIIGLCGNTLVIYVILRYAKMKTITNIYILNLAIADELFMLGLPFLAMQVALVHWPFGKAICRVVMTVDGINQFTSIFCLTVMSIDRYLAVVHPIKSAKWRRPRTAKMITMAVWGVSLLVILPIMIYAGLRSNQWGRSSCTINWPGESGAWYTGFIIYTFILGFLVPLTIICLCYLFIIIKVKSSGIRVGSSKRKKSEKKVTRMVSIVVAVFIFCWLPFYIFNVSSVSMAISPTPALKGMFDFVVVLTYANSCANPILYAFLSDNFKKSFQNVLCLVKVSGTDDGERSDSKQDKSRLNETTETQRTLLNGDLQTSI

With `CCCCCCCCCCC(C)(C)C(=O)N[C@H]1CCCCNC1=O` [BN83250, (S)-3-(2',2'-dimethyldodecanoyl)amino-caprolactam] the Kd [1] was about 80 nM, the “effect on SDF-1α induced migration of parental Jurkat T cell line (in words)” value [2] was “little or no effect” and the Emax [3] was 63%. For the same molecule, the EC50 [3] was 320 nM, the “inhibition of SDF-1α induced migration of Jurkat-D3B (in words)” value [4] was “inhibits SDF-1α induced migration” and the EC50 ([4]; Homo sapiens, 100ng/ml SDF-1α, Jurkat-D3B, read-out: ED50 (the source's name)) was about 10 nM. For the same molecule, the “increase in BSCI sensitivity from ectopic expression of sstr2” value ([4]; Jurkat-D3B versus parental Jurkat T cells) was “more than 100 fold” and the “inhibition of LPS-induced TNF-alpha production (in words)” value [5] was “dramatically inhibited”.
For `CC(C)(C)C(=O)N[C@H]1CCCNC1=O` [Valerolactam, (S)-3-(2'2'-dimethylpropionoylamino)-tetrahydropyridin-2-one], the “inhibition of BN83250 binding” value ([1]; 1nM and above) was 80-90%, the “Hill Slope” value ([1]; competition with [3H]-BN83250) was “approximately -1.0” and the EC50 ([1]; read-out: ED50 for competition with [3H]-BN83250 binding at sstr2, 10nM [3H]-BN83250) was about 0.05 nM. For the same molecule, the Emax [3] was 61%, the EC50 [3] was 80 nM and the “inhibition of SDF-1α induced migration of Jurkat-D3B (in words)” value [4] was “sensitive to inhibition”. For the same molecule, the “inhibition of LPS-induced TNF-alpha production (in words)” value [5] was “dramatically inhibited”.
